Experiments:
[1] = test system: Human immunodeficiency virus 2; assay: Antiviral activity against HIV-2 ROD infected in human MT4 cells assessed as protection against virus-induced cytopathic effect incubated for 5 days by MTT assay; assay type: functional, organism-based; conditions: Human immunodeficiency virus 2, ROD, MT4, 120 h
[2] = test system: Human immunodeficiency virus 1; assay type: functional, organism-based; conditions: Human immunodeficiency virus 1, MT4, 120 h
[3] = Cytotoxicity against human MT4 cells assessed as reduction in cell viability measured after 5 days by MTT assay; assay type: toxicity, cell-based; conditions: time 5 day
[4] = test system: Human immunodeficiency virus 1; assay: Antiviral activity against NNRTI-resistant HIV-1 harboring RT E138K mutant infected in human MT4 cells assessed as protection against virus-induced cytopathic effect incubated for 5 days by MTT assay; assay type: functional, organism-based; conditions: Human immunodeficiency virus 1, MT4, 120 h
[5] = test system: Human immunodeficiency virus 1; assay type: functional, organism-based; conditions: Human immunodeficiency virus 1, MT4, 120 h; remark: listed apart in the source
[6] = test system: Human immunodeficiency virus 1; assay: Antiviral activity against NNRTI-resistant HIV-1 harboring RT L100I mutant infected in human MT4 cells assessed as protection against virus-induced cytopathic effect incubated for 5 days by MTT assay; assay type: functional, organism-based; conditions: Human immunodeficiency virus 1, MT4, 120 h
[7] = test system: Human immunodeficiency virus 1; assay type: functional, organism-based; conditions: Human immunodeficiency virus 1, RES056, MT4, 120 h
[8] = test system: Human immunodeficiency virus 1; assay: Antiviral activity against NNRTI-resistant HIV-1 harboring RT K103N mutant infected in human MT4 cells assessed as protection against virus-induced cytopathic effect incubated for 5 days by MTT assay; assay type: functional, organism-based; conditions: Human immunodeficiency virus 1, MT4, 120 h
[9] = target: Human immunodeficiency virus type 1 reverse transcriptase (Human immunodeficiency virus 1, UniProt Q72547); assay: Inhibition of wild type HIV-1 Reverse transcriptase incubated for 1 hrs by ELISA analysis
in vitro [10] = conditions: human, MT4 cells
Description: Selectivity index, ratio of CC50 for human MT4 cells to EC50 for wild type HIV-1 IIIB infected in human MT4 cells

[11] = test system: Human immunodeficiency virus 1; assay: microbe, parasite or virus in culture; conditions: Human immunodeficiency virus 1, IIIB, MT4, 120 h
Description: Antiviral activity against wild type HIV-1 IIIB infected in human MT4 cells assessed as protection against virus-induced cytopathic effect incubated for 5 days by MTT assay

in vitro [12] = conditions: human, MT4 cells; remark: listed apart in the source
Description: Selectivity index, ratio of CC50 for human MT4 cells to EC50 for HIV-1 RES056 harboring RT K103N/Y181C mutant infected in human MT4 cells

[13] = test system: Human immunodeficiency virus 1; assay type: functional, organism-based; conditions: Human immunodeficiency virus 1, MT4, 120 h; remark: listed apart in the source

SMILES | EC50 [1] [nM] | EC50 [2] [nM] | CC50 at 120 h [3] [nM] | EC50 [4] [nM] | EC50 [5] [nM] | EC50 [6] [nM] | EC50 [7] [nM] | EC50 [8] [nM] | IC50 [9] [nM] | selectivity ratio (in vitro [10]) | EC50 [11] [nM] | selectivity ratio (in vitro [12]) | EC50 [13] [nM]
O=C1Nc2ccc(Cl)cc2[C@@](C#CC2CC2)(C(F)(F)F)O1 [EFAVIRENZ] | > 6340 | 9 | > 6340 | 9 |  |  |  |  |  |  |  |  | 
Cc1cc(/C=C/C#N)cc(C)c1Oc1ccnc(Nc2ccc3c(c2)C(=O)NCC3)n1 | > 3190 | 44 | 3190 | 21 | > 3190 | 14 | 1340 | 11 | 46 | 1220 | 3 | 2 | > 3190
Cc1cc(/C=C/C#N)cc(C)c1Oc1ccnc(Nc2ccc3c(c2)COC3)n1 | > 14000 | 99 | 14000 | 39 | 700 | 47 | 1080 | 6 | 29 | 7440 | 2 | 573 | 4900
Cc1ccnc2c1NC(=O)c1cccnc1N2C1CC1 [NEVIRAPINE] | > 9510 | 5830 | > 9510 |  | > 9510 |  | > 9510 | 5220 |  |  | 130 |  | > 9510
Cc1cc(/C=C/C#N)cc(C)c1Oc1ccnc(Nc2ccc(N3CCN(S(C)(=O)=O)CC3)c(C#N)c2)n1 | > 10200 | 6 | 10200 | 6 | 10 | 4 | 93 | 2 |  | 7170 | 1 | 110 | 740
Cc1cc(C#N)cc(C)c1Oc1nc(Nc2ccc(C#N)cc2)nc(N)c1Br [ETRAVIRINE] | > 4590 |  | > 4590 |  | 17 |  | 32 |  |  |  |  |  | 31
Cc1cc(/C=C/C#N)cc(C)c1Oc1ccnc(Nc2ccc3c(c2)CN(S(N)(=O)=O)CC3)n1 | > 11600 |  | 11600 |  |  |  | 6470 |  | 110 | 743 | 16 | 2 | 
Cc1cc(/C=C/C#N)cc(C)c1Oc1ccnc(Nc2ccc3ncsc3c2)n1 | > 46000 |  | 46000 |  |  |  | 2870 |  | 70 | 5140 | 9 | 16 | 
Cc1cc(/C=C/C#N)cc(C)c1Oc1ccnc(Nc2ccc3c(cnn3C)c2)n1 | > 50400 | 180 | > 50400 | 54 | > 50400 | 92 | > 50400 | 18 | 45 | > 18200 | 3 |  | > 50400
Cc1cc(/C=C/C#N)cc(C)c1Oc1ccnc(Nc2ccc3oncc3c2)n1 | > 17600 |  | 17600 |  |  |  | 4150 |  | 65 | 2640 | 7 | 4 | 
Cc1cc(/C=C/C#N)cc(C)c1Oc1ccnc(Nc2ccc3c(c2)CN(C(=O)CS(C)(=O)=O)CC3)n1 | > 8640 |  | 8640 |  |  |  | > 8640 |  | 230 | 524 | 17 | 1 | 
Cc1cc(/C=C/C#N)cc(C)c1Oc1ccnc(Nc2ccc3c(c2)OC(F)(F)O3)n1 | > 19200 |  | 19200 |  |  |  | 5310 |  | 90 | 966 | 20 | 4 | 
Cc1cc(/C=C/C#N)cc(C)c1Oc1ccnc(Nc2ccc3c(c2)CCN(S(N)(=O)=O)C3)n1 | > 6240 |  | 6240 |  |  |  | > 6240 |  | 55 | 748 | 8 |  | 

— ChEMBL document CHEMBL6087416, “Discovery of novel fused-heterocycle-bearing diarypyrimidine derivatives as HIV-1 potent NNRTIs targeting tolerant region I for enhanced antiviral activity and resistance profile” (Eur J Med Chem, 2025)
